Reference: article PMC8069941, “Potential Anticancer Lipoxygenase Inhibitors from the Red Sea-Derived Brown Algae Sargassum cinereum: An In-Silico-Supported In-Vitro Study” (Antibiotics, 2021)

Columns and labels:
5-LOX = target: T1, 5-LOX (Homo sapiens, UniProt P09917); test: 5-LOX inhibition assay (human recombinant enzyme kit); assay type: biochemical
T1 construct: purchased Cayman Chemical 60,402
T1 sequence (P09917 1-674): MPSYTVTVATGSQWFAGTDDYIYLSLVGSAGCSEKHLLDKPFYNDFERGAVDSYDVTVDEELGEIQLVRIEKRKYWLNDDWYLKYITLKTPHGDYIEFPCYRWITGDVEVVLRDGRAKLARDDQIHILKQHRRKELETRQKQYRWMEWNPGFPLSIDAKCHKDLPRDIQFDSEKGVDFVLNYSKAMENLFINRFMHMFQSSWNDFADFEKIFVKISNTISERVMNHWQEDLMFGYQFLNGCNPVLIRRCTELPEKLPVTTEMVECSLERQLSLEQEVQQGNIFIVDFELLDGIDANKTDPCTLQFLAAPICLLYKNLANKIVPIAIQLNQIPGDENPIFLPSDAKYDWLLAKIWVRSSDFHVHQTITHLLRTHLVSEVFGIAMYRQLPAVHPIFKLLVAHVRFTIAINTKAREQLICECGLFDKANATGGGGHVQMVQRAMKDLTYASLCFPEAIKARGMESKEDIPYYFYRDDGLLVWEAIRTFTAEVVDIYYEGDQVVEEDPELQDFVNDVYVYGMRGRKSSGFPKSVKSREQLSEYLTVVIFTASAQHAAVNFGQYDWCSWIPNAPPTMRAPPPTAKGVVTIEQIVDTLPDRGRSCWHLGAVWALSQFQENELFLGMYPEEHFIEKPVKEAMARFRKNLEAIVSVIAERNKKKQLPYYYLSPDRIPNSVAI
Description: The ability of the isolated compounds 12, 13, and 19 to inhibit 5-LOX and 15-LOX enzymes (IC50 and Ki values, µM) was determined using human recombinant enzyme assay kits (catalog no 60,402 and 10011263, Cayman Chemical, Ann Arbor, MI, USA) following manufacturer’s specifications. Stock solutions were freshly prepared before use, and buffer solution (0.1 M Tris-HCl, PH, 7.4) was used. 10 µL of each compound were prepared, dissolved in the least amount of DMSO and diluted with the stock solution to be in concentrations of (0.001, 0.1, 1, 5, 10 µM) in a final volume of […]. The kinetic parameters for both 5-LOX and 15-LOX were determined by measuring the increase in absorbance at 238 nm in an Agilent 8453 diode array spectrophotometer (Agilent Technologies, Santa Clara, CA, USA). Substrate concentration was ranged from 5 to 50 µM. Substrate concentrations (5, 10, 20, 30, 40, 50 µM) were monitored in triplicate for each sample [37]. Doxorubicin was used as a positive control.

15-LOX = target: T2, 15-LOX (Homo sapiens, UniProt O15296); test: 15-LOX inhibition assay (human recombinant enzyme kit); assay type: biochemical
T2 construct: purchased Cayman Chemical 10011263
T2 sequence (O15296 1-676): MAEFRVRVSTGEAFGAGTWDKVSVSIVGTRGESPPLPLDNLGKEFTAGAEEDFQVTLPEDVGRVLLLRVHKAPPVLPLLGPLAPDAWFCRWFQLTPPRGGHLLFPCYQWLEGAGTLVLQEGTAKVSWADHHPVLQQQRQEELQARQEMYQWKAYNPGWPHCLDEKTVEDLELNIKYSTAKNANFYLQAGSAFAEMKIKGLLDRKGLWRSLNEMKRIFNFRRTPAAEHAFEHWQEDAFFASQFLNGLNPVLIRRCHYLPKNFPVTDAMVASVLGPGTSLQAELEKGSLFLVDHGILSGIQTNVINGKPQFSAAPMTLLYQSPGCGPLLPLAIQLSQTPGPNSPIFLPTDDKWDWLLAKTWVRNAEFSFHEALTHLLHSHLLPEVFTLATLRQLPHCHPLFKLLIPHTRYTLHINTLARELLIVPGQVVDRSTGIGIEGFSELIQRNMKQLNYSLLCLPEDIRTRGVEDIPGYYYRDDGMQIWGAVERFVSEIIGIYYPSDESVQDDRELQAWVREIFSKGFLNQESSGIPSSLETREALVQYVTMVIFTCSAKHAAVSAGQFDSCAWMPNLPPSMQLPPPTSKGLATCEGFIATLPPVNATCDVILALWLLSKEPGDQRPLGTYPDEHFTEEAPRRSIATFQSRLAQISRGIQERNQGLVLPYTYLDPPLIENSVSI
Description: Stock solutions were freshly prepared before use, and buffer solution (0.1 M Tris-HCl, PH, 7.4) was used. 10 µL of each compound were prepared, dissolved in the least amount of DMSO and diluted with the stock solution to be in concentrations of (0.001, 0.1, 1, 5, 10 µM) in a final volume of 210 mL. […] Substrate concentration was ranged from 5 to 50 µM. Substrate concentrations (5, 10, 20, 30, 40, 50 µM) were monitored in triplicate for each sample [37]. Doxorubicin was used as a positive control.

[1] = in vitro, human recombinant enzyme

`CCCCC/C=C\C/C=C\C/C=C\C/C=C\CCCCOCC(O)CO[C@H]1O[C@H](CO)[C@@H](O)[C@H](O)[C@H]1O` (stereo partly drawn) [compound 19, 1-O-arachidonyl-3-O-(α-D-glucopyranosyl) glycerol] was tested, and the Ki (5-LOX; in vitro inhibition constant) was 1.4 ± 0.2 µM, the IC50 (5-LOX; [1]) was 2.1 ± 0.4 µM and the Ki (15-LOX; in vitro inhibition constant) was 4.2 ± 0.1 µM. It also gave an IC50 (15-LOX; [1]) of 6.7 ± 0.3 µM.
